Measured values reported in PubChem BioAssay (NCI).
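Step 1: Grow cells in 96-well plates. Step 2: Expose to compound for 48 hours at 5 concentrations. Step 3: Interpolate endpoints linearly; if unreached, use highest concentration. GI50 is the concentration that inhibits growth by half. TGI: concentration producing complete growth inhibition.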

Assays:
Test in all cases: NCI tumour cell line growth inhibition, 48 h
SNB-75 CNS = system: SNB-75 CNS
SK-MEL-5 melanoma = system: SK-MEL-5 melanoma
SN12C renal = system: SN12C renal
RXF 393 renal = system: RXF 393 renal
CCRF-CEM leukemia = system: CCRF-CEM leukemia
OVCAR-4 ovarian = system: OVCAR-4 ovarian
OVCAR-5 ovarian = system: OVCAR-5 ovarian
BT-549 breast = system: BT-549 breast
DU-145 prostate = system: DU-145 prostate
MCF7 breast = system: MCF7 breast

| SMILES | TGI (SNB-75 CNS) [µM] | TGI (SK-MEL-5 melanoma) [µM] | TGI (SN12C renal) [µM] | TGI (RXF 393 renal) [µM] | TGI (CCRF-CEM leukemia) [µM] | TGI (OVCAR-4 ovarian) [µM] | TGI (OVCAR-5 ovarian) [µM] | TGI (BT-549 breast) [µM] | TGI (DU-145 prostate) [µM] | TGI (MCF7 breast) [µM] | GI50 (SNB-75 CNS) [µM] | GI50 (SK-MEL-5 melanoma) [µM] | GI50 (SN12C renal) [µM] | GI50 (BT-549 breast) [µM] | GI50 (DU-145 prostate) [µM] | GI50 (MCF7 breast) [µM] | GI50 (CCRF-CEM leukemia) [µM] | GI50 (OVCAR-4 ovarian) [µM] | GI50 (OVCAR-5 ovarian) [µM] | GI50 (RXF 393 renal) [µM] |
| --- | --- | --- | --- | --- | --- | --- | --- | --- | --- | --- | --- | --- | --- | --- | --- | --- | --- | --- | --- | --- |
| O=C(c1ccccc1)c1nnc(C(=O)c2ccccc2)nn1 | > 344 | > 344 | > 344 | 261 | > 344 | > 344 | > 344 |  |  |  |  |  |  |  |  |  |  |  |  |  |
| Cc1cccc(C)c1NC(=O)C(=O)C1C(=O)NC(=O)NC1=O |  | > 100 | > 100 | > 100 | > 100 | > 100 | > 100 |  |  |  |  |  |  |  |  |  |  |  |  |  |
| O/N=C/C1c2ccccc2-c2ccccc21 |  | 25.4 | 31.9 | 41.5 | 50.4 |  |  | 33.1 | 45.9 | 33.7 |  |  |  |  |  |  |  |  |  |  |
| Cc1cc2c(cc1C)[n+](=O)c(C(=O)C/C(=N/NC(=O)CC#N)C(=O)Nc1ccccc1C(F)(F)F)c(C)n2[O-] | > 100 |  | > 100 | > 100 | > 100 | > 100 | > 100 |  |  |  |  |  |  |  |  |  |  |  |  |  |
| COC(=O)/C(=N/NC(=O)C[N+](C)(C)C)C(C(=O)OC)C(=O)C(=O)Nc1ccc(F)cc1 (stereo not drawn) | > 100 | > 100 | > 100 | > 100 | > 100 | > 100 | > 100 |  |  |  |  |  |  |  |  |  |  |  |  |  |
| COc1cc(C2NC(=O)c3ccccc3N2)ccc1OCCCCCOc1c(OC)cc(C2=NOC(c3cc(OC)c(OC)c(OC)c3)C2)cc1OC (stereo not drawn) | > 100 | 0.546 | > 100 |  | > 77.6 | > 100 | > 94.3 | > 100 | > 82.7 | > 100 | 19.6 | 0.142 | 31.3 | 0.507 | 22.5 | 0.356 | 0.627 | 0.417 | 33.9 |  |
| O=C1CCC(=O)N2CCCCN12 | > 100 | > 100 | > 100 | > 100 | > 100 | > 100 | > 100 |  |  |  |  |  |  |  |  |  |  |  |  |  |
| CCC[CH2][Sn]1([CH2]CCC)[O]Cc2nc(C)ccc2[O]1 | 18.8 | 25.9 | 23.3 | 19.9 | 5.01 | 17.6 | 24.8 |  |  |  | 4.63 | 13 | 11.3 |  |  |  | 1.87 | 3.95 | 12.3 | 8.15 |
| Brc1cccc(C=NC23CC4CC(CC(C4)C2)C3)c1 | > 100 | > 100 | > 100 | > 100 | > 100 | > 100 | > 100 |  |  |  |  |  |  |  |  |  |  |  |  |  |
| Cc1ccc2c(c1)[n+]([O-])c(N)n[n+]2[O-] | > 100 | > 100 | > 100 |  | > 100 | > 100 | > 100 | > 100 | > 100 | > 100 |  |  |  |  |  |  |  |  |  |  |
| COc1ccc(/C=C/CN(C)CCc2ccccc2)cc1OC | > 100 | > 100 | > 100 | > 100 |  |  | > 100 |  |  |  |  |  |  |  |  |  |  |  |  |  |
| O=c1c2cc([N+](=O)[O-])ccc2sc2ccsc12 | > 100 | > 100 | > 100 | > 100 | > 100 | > 100 | > 100 |  |  |  |  |  |  |  |  |  |  |  |  |  |
| CN1CCN(C(=O)OCc2nc3c(N4CCOCC4)nc(Cl)nc3n2C)CC1 | 2.73 | 2.89 | 3.06 | 2.31 | 1.78 | 2.27 | 3.54 | 2.44 | 3.09 |  | 1.35 | 1.55 | 1.45 | 1.09 | 1.39 |  | 0.313 | 1.06 | 1.6 | 1.08 |
| O=C1c2cc(Cl)ccc2S(=O)(=O)c2c(NCCCNCCO)nc3ccccc3c21 | 9.35 | 6.48 | 2.51 |  | 2.74 | 2.18 | 3.32 | 14.6 | 2.52 | 3.71 | 2.15 | 2.5 | 1.25 | 3.99 | 1.25 | 1.52 | 0.648 | 0.985 | 1.65 |  |
| [Cl-].[Dy+3].[O-]/N=C(\c1ccccc1)c1ccccn1.[O-]/N=C(\c1ccccc1)c1ccccn1.[O-]/N=C(\c1ccccc1)c1ccccn1 | 22.1 | 61.7 | > 100 |  | 97.4 | > 100 | > 100 |  |  |  | 3.54 | 23.7 | 46.4 |  |  |  | 23.6 | 44.3 | 42.4 |  |
| O=C(/N=N/C(=O)OCc1ccccc1)OCc1ccccc1 | > 100 | > 100 | > 100 | > 100 | > 100 | > 100 | > 100 |  |  |  |  |  |  |  |  |  |  |  |  |  |
| CCC[CH2][Sn]([CH2]CCC)([O]C(=O)c1cccnc1SC)[O]C(=O)c1cccnc1SC | 2.02 | 2.56 | 1.92 | 1.12 |  | 3.06 | 3.17 |  |  |  | 0.673 | 1.27 | 0.62 |  |  |  |  | 1.62 | 1.76 | 0.21 |
| CC1(C)OC2[C@@H](CNC(=O)NC(=O)NC(=O)CI)O[C@@H](n3cnc4c(NC(=O)Nc5ccccc5)ncnc43)[C@H]2O1 (stereo partly drawn) | 13.3 | 16.2 | 28.6 | 13.6 |  | 21 | 18 | 14.7 | > 50 | 14.2 | 6.62 | 8.74 | 10.3 | 7.83 | 14.5 | 6.17 |  | 7.16 | 8.74 | 6.96 |
| C=C1C(=O)O[C@H]2[C@H]1CC/C(Cn1cc(-c3ccc(OC)cc3)nn1)=C\CC[C@@]1(C)O[C@@H]21 | 3.28 | 4.69 | 5.27 | 2.02 | 0.823 | 3.33 | 3.66 | 2.89 | 2.32 |  | 1.47 | 2.1 | 1.96 | 1.31 | 1.11 |  | 0.29 | 1.52 | 1.71 | 0.703 |
| CC(C)(C)C1C=C(Sc2ccccc2)C(=O)O1 (stereo not drawn) | 83.8 |  | > 100 |  | > 100 | > 100 | > 100 |  |  |  |  |  |  |  |  |  |  |  |  |  |
